The values below come from paper PMC10917151 (Nature chemical biology, 2023).

Assay [1] concerns the target endogenous BRD4 in HEK293T cells (Homo sapiens, UniProt O60885). As to the kind of experiment: Western blot of endogenous BRD4 degradation. The assay is classed as cell-based. The following applies: 18 h. (In western blotting, separated proteins are transferred to a membrane and probed.)
A further assay deals with VHL-LgBiT (human) (UniProt P40337).
Chain of VHL-LgBiT (human) (P40337 whole entry): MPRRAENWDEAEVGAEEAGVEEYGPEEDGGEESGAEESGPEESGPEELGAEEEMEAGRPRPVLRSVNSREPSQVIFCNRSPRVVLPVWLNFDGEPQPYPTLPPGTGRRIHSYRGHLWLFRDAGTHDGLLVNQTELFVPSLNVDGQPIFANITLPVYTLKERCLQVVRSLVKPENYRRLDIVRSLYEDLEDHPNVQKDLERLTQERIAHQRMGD

As to `Cc1ncsc1-c1ccc(CNC(=O)[C@@H]2C[C@@H](O)CN2C(=O)[C@@H](NC(=O)COCCOCCOCCNC(=O)C[C@@H]2N=C(c3ccc(Cl)cc3)c3c(sc(C)c3C)-n3c(C)nnc32)C(C)(C)C)cc1` [MZ1], in assay [1] (1 μM), the “endogenous BRD4 degradation at 1 μM (Western blot)” value was “complete BRD4 removal”. For `CC(=O)N[C@H](C(=O)N1C[C@H](O)C[C@H]1C(=O)NCc1ccc(-c2scnc2C)cc1)C(C)(C)C` [VH032], the “endogenous BRD4 degradation (Western blot)” value in assay [1] was “no degradation”. In the assay with VHL-LgBiT (human), SmBiT-BRD4^BD1 (domain or fragment) returned a HiBiT assay: DC50 of degradation of HiBiT-tagged BRD4^BD1 in HEK293T with CIP-2 of 17 nM and a HiBiT assay: Dmax of degradation of HiBiT-tagged BRD4^BD1 in HEK293T with CIP-2 of 93%.
